Data published in patent US9714245B2, “Carboline compounds usable in the treatment of neurodegenerative diseases” (ALZPROTECT, priority 2013, dated 2017).

How the values were obtained:
[1] = tested on: AICD; experiment: Quantification of AICD by Western blot in SY5Y-APPWT cells; format: cell-based, Human; conditions: compared to a control with a value of 100
Protocol: (§1) Quantifications of APP-CTFs and AICD
(§2) After treatment, SY5Y-APP^WT cells were scrapped and lysed in 1× Lysis Buffer (250 mM NaCl, 50 mM Tris, pH 8.8, 5 mM EDTA, 2.5% Triton X-100, 1% Deoxycholate, 0.1% SDS). For the Western blotting, an equal amount of total proteins (20 μg/lane) was loaded on a 16.5% Tris-Tricine or 8-16% Tris-Glycine polyacrylamide gel.
(§3) SDS-polyacrylamide gel electrophoresis (PAGE) was performed using the Criterion™ Tris-Tricine-precast or Bis-Tris-precast criterion gels (Bio-Rad Bioresearch division). Proteins were transferred to a […] nitrocellulose membrane (Hybond, Amersham Biosciences) at 2.5 mA/cm2 per gel using the Criterion™ Blotter system (Amersham Biosciences), according to the manufacturer's instructions. Proteins were reversibly stained with Ponceau Red in order to check the quality of the transfer of protein. The membranes were blocked in 25 mM Tris-HCl pH 8.0, 150 mM NaCl, 0.1% Tween-20 (v/v) and 5% (w/v) of skimmed milk for 30 min. Membranes were incubated overnight at 4° C. with appropriate dilution of the primary antibodies, and were incubated for 1 h at room temperature with secondary antibody. […] Quantifications were calculated with Image J software (NIH) and the data were collected using Excel Software (Microsoft). The loading variations between Western blot lanes were normalized according to the tubulin signal. Quantification of CTFα and AICD were compared to control conditions (considered as 100 in arbitrary units) and are presented for two concentrations of the drug: 1 and 10 μM.

[2] = tested on: secreted Aβ1-42; experiment: Aβ1-42 secretion by APP-transfected neuroblastoma cells (ELISA); format: cell-based; conditions: Homo sapiens, Neuroblastoma cell; SKNSH-SYSY APPWT cells; concentration decreasing secreted Aβ1-42 to 50% of basal amount
Protocol: Cell Cultures and Transfections to Test Activity on Aβ1-40 and Aβ1-42 Secretion
Human neuroblastoma cell line SKNSH-SYSY (ATCC® Catalog No. CRL-2266™), HEK (ATCC® CRL-1573™) and COS-1 (ATCC® CRL-1650™) cells were maintained in Dulbecco's modified Eagle medium (DMEM, GIBCO BRL) supplemented with 10% fetal calf serum, 2 mM L-glutamine, 1 mM non-essential amino acids, 50 units/ml penicillin/streptomycin (Invitrogen, France) in a 5% CO2 humidified incubator at 37° C. APP695 cDNA was subcloned into eukaryotic expression vector pcDNA3 (Invitrogen), allowing for a G418 (Invitrogen) selection of clones. This APP cDNA coding for the 695 amino acid long isoform was transfected into SKNSH-SYSY cells using the ethyleneimine polymer ExGen 500 (Euromedex) according to the manufacturer's instructions. The cells expressing APP (SKNSH-SYSY APP^WT) were selected by the addition of 200 μg/ml G418 in the cell medium. To quantify AR which released in the cell culture medium, the collected medium was spun at 200×g to eliminate the cell debris. The concentrations of secreted Aâ1-40 and Aβ1-42 were determined using the Human Aβ (1-40) Assay Kit (IBL) or the INNOTEST™ beta-Amyloid (1-42) ELISA Kit (Innogenetics), according to manufacturer's instructions. The results were expressed as IC50, i.e. the concentration able to decrease to 50% the basal amount of secreted Aβ peptide 1-40 and 1-42.

[3] = tested on: CTFα; experiment: Quantification of APP-CTFα by Western blot in SY5Y-APPWT cells; format: cell-based, Human; conditions: compared to a control with a value of 100
Protocol: as §1, §2, §3

- IC50 [2]: 2100 nM
SMILES: CC(C)CN(CCCN1CCN(CCCN2CCc3[nH]c4ccc(F)cc4c3C2)CC1)CC(C)C [Compound 3.1d, N,N-diisobutyl-3-(4-(3-(8-fluoro-1,3,4,5-tetrahydro-1H-pyrido[4,3-b]indol-2-yl)propyl)piperazin-1-yl)propylamine]
- AICD (10 μM) [1]: 84225 arbitrary units
- CTFα (10 μM) [3]: 1011 arbitrary units
